Data from the supplement of paper PMC10307832.

Key:
Assay in all cases: relative viability (nuclei count vs DMSO), 5 days (fraction); higher = more cells survive
OSI-027 + Luminespib = compound: COc1cccc2cc(-c3nc([C@H]4CC[C@H](C(=O)O)CC4)n4ncnc(N)c34)[nH]c12 [OSI-027] + CCNC(=O)c1noc(-c2cc(C(C)C)c(O)cc2O)c1-c1ccc(CN2CCOCC2)cc1 [Luminespib] (partner 0.01 µM)
In short: (§1)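 Each reported value is a median over duplicate plates. It expresses relative viability: treated-well nuclei count divided by vehicle-well nuclei count. Lung cancer cell lines in 1536-well plates were dosed by pin tool a day after seeding, alone with one drug or with a fixed anchor-drug dose plus five library-drug doses (not always all listed) in √10 steps, and nuclei were counted after 5 days.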

Alpelisib + Olaparib = compound: Cc1nc(NC(=O)N2CCC[C@H]2C(N)=O)sc1-c1ccnc(C(C)(C)C(F)(F)F)c1 [Alpelisib] + O=C(c1cc(Cc2n[nH]c(=O)c3ccccc23)ccc1F)N1CCN(C(=O)C2CC2)CC1 [Olaparib] (partner 8 µM)
In short: as §1

OSI-027 + Foretinib = compound: COc1cccc2cc(-c3nc([C@H]4CC[C@H](C(=O)O)CC4)n4ncnc(N)c34)[nH]c12 [OSI-027] + COc1cc2c(Oc3ccc(NC(=O)C4(C(=O)Nc5ccc(F)cc5)CC4)cc3F)ccnc2cc1OCCCN1CCOCC1 [Foretinib] (partner 0.25 µM)
In short: as §1

OSI-027 + Phenformin = compound: COc1cccc2cc(-c3nc([C@H]4CC[C@H](C(=O)O)CC4)n4ncnc(N)c34)[nH]c12 [OSI-027] + N=C(N)NC(=N)NCCc1ccccc1 [Phenformin] (partner 250 µM)
In short: as §1

Cell Line	relative viability (OSI-027 + Luminespib; first compound 0.01 µM)	relative viability (OSI-027 + Luminespib; first compound 0.03162 µM)	relative viability (OSI-027 + Luminespib; first compound 0.1 µM)	relative viability (OSI-027 + Luminespib; first compound 0.3162 µM)	relative viability (OSI-027 + Luminespib; first compound 1 µM)	relative viability (Alpelisib + Olaparib; first compound 0.04 µM)	relative viability (Alpelisib + Olaparib; first compound 0.1265 µM)	relative viability (Alpelisib + Olaparib; first compound 0.4 µM)	relative viability (Alpelisib + Olaparib; first compound 1.265 µM)	relative viability (Alpelisib + Olaparib; first compound 4 µM)	relative viability (OSI-027 + Foretinib; first compound 0.01 µM)	relative viability (OSI-027 + Foretinib; first compound 0.03162 µM)	relative viability (OSI-027 + Foretinib; first compound 0.1 µM)	relative viability (OSI-027 + Foretinib; first compound 0.3162 µM)	relative viability (OSI-027 + Foretinib; first compound 1 µM)	relative viability (OSI-027 + Phenformin; first compound 0.01 µM)	relative viability (OSI-027 + Phenformin; first compound 0.03162 µM)	relative viability (OSI-027 + Phenformin; first compound 0.1 µM)	relative viability (OSI-027 + Phenformin; first compound 0.3162 µM)	relative viability (OSI-027 + Phenformin; first compound 1 µM)
NCI-H2023	0.812	0.59	0.646	0.709	0.27	0.436	0.432	0.479	0.383	0.263	0.964	0.925	0.785	0.765	0.461	0.452	0.367	0.397	0.301	0.213
NCI-H2085	0.647	0.437	0.439	0.341	0.231	0.754	0.75	0.794	0.733	0.711	1.09	1.01	0.895	1.05	0.591	0.727	0.701	0.704	0.623	0.503
NCI-H2087	0.143	0.166	0.176	0.133	0.158	0.557	0.514	0.653	0.483	0.444	1.11	1.1	1.01	0.863	0.39	0.495	0.492	0.424	0.398	0.271
NCI-H2126	0.93	1.01	0.85	0.575	0.547	0.887	0.864	0.871	0.76	0.659	1.3	0.983	1.2	0.862	0.786	0.527	0.555	0.437	0.405	0.404
NCI-H2170	0.844	0.639	0.565	0.544	0.176	0.519	0.586	0.596	0.481	0.466	1.1	0.962	0.981	0.965	0.667	0.429	0.401	0.431	0.436	0.275
NCI-H2228	0.165	0.162	0.0954	0.122	0.111	0.889	0.587	0.621	0.341	0.326	0.887	0.791	0.831	0.745	0.439	0.305	0.324	0.307	0.251	0.198
NCI-H2342	0.783	0.616	0.82	0.617	0.514	0.448	0.429	0.405	0.367	0.266	1.14	0.95	1.05	0.83	0.648	0.524	0.533	0.564	0.481	0.445
NCI-H2347	0.283	0.339	0.604	0.279	0.288	0.632	0.61	0.89	0.481	0.515	0.914	1.15	0.633	0.494	0.468	0.442	0.371	0.293	0.262	0.296
